Assay results taken from patent publication US9156845B2, “4-(substituted amino)-7H-pyrrolo[2,3-d] pyrimidines as LRRK2 inhibitors” (Pfizer Inc., priority 2012, dated 2015).

Legend:
[1] = biological target: ZAK (Homo sapiens (Human), UniProt Q9NYL2); experiment: ActivX kinase probe assay (human PBMC); assay type: binding; conditions: ZAK, read-out: percent inhibition
[2] = biological target: PIK3CG (Homo sapiens (Human), UniProt P48736); experiment: ActivX kinase probe assay (human PBMC); assay type: binding; conditions: PIK3CG, read-out: percent inhibition
[3] = biological target: RSK2 domain1 (Homo sapiens (Human), UniProt P51812); experiment: ActivX kinase probe assay (human PBMC); assay type: binding; conditions: RSK2 domain1, read-out: percent inhibition
[4] = biological target: MAST3 (Homo sapiens (Human), UniProt O60307); experiment: ActivX kinase probe assay (human PBMC); assay type: binding; conditions: MAST3, read-out: percent inhibition
[5] = biological target: p70S6Kb (Homo sapiens (Human), UniProt Q9UBS0); experiment: ActivX kinase probe assay (human PBMC); assay type: binding; conditions: p70S6Kb, read-out: percent inhibition
p70S6Kb, sequence (Q9UBS0 whole entry): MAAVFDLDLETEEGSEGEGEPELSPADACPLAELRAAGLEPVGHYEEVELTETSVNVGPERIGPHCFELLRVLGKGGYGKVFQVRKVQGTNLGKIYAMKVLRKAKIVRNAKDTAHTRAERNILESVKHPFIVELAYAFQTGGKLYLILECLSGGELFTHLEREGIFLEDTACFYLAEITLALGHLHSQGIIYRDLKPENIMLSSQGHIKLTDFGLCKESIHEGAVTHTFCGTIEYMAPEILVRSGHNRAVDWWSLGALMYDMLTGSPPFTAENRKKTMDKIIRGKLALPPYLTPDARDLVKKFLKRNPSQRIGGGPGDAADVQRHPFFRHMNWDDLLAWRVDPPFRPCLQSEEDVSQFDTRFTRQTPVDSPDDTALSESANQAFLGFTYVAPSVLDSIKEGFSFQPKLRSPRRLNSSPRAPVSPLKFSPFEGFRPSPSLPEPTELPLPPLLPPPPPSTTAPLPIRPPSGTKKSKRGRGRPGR

[6] = biological target: NDR2 (Homo sapiens (Human), UniProt Q9Y2H1); experiment: ActivX kinase probe assay (human PBMC); assay type: binding; conditions: NDR2, read-out: percent inhibition
NDR2, sequence (Q9Y2H1 whole entry): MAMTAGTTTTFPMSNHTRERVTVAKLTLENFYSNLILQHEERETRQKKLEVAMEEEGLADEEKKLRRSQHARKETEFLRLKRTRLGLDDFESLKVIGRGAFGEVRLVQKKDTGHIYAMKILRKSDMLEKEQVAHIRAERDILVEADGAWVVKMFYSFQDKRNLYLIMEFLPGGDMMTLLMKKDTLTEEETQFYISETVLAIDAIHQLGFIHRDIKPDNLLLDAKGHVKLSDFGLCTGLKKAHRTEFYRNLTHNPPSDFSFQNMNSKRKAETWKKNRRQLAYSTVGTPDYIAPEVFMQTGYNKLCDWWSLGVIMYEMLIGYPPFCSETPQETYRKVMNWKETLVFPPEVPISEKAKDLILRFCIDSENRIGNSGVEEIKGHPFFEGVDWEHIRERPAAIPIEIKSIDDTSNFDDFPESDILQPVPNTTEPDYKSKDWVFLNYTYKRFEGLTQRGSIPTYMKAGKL

[7] = biological target: FES (Homo sapiens (Human), UniProt P07332); experiment: ActivX kinase probe assay (human PBMC); assay type: binding; conditions: FES, read-out: percent inhibition
FES, sequence (P07332 whole entry): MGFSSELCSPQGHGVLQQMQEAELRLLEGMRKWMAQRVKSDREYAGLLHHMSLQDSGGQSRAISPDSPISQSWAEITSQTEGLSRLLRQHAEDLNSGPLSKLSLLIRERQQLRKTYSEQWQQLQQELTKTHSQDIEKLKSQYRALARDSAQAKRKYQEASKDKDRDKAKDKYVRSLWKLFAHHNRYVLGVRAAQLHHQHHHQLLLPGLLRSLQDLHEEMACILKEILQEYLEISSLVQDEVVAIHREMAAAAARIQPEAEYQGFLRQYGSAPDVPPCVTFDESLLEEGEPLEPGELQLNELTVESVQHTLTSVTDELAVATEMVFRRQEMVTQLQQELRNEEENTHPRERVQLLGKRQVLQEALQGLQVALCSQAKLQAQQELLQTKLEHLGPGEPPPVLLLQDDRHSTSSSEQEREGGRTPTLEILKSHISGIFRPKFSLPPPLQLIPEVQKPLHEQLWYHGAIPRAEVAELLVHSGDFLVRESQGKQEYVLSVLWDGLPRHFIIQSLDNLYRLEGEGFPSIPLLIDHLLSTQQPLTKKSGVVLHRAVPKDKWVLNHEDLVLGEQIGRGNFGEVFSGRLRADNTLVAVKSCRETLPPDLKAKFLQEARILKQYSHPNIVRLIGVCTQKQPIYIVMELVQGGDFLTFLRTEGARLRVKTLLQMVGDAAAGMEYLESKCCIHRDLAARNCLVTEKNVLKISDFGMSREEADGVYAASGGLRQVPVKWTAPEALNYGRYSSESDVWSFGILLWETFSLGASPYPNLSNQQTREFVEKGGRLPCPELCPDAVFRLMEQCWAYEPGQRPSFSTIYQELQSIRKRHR

[8] = biological target: PKD2 (Homo sapiens (Human), UniProt Q9BZL6); experiment: ActivX kinase probe assay (human PBMC); assay type: binding; conditions: PKD2, read-out: percent inhibition
[9] = tested on: MAP2K1, MAP2K2; experiment: ActivX kinase probe assay (human PBMC); assay type: binding
[10] = biological target: PRPK (Homo sapiens (Human), UniProt Q96S44); experiment: ActivX kinase probe assay (human PBMC); assay type: binding; conditions: read-out: percent inhibition
Experimental: Certain of the compounds of the present invention were assessed for kinase selectivity using a commercially available ActiveX targeted kinase probe in which the tissue employed was human peripheral blood mononuclear cells (PBMC). The test compounds were provided to ActivX Biosciences, Inc., 11025 North Torrey Pines Road, Suite 120; LaJolla, Calif., USA 92037. The compounds were run in the ActivX proprietary kinase assay and results were obtained at compound test concentrations of 1 μM (columns 2, 4 and 6) and 0.1 μM (columns 3, 5 and 7). The results as percent inhibition obtained for the compounds of Examples 1, 4 and 217 are provided below in Table 3.

[11] = biological target: PIP4K2A (Homo sapiens (Human), UniProt P48426); experiment: ActivX kinase probe assay (human PBMC); assay type: binding; conditions: PIP4K2A, read-out: percent inhibition
PIP4K2A, sequence (P48426 whole entry): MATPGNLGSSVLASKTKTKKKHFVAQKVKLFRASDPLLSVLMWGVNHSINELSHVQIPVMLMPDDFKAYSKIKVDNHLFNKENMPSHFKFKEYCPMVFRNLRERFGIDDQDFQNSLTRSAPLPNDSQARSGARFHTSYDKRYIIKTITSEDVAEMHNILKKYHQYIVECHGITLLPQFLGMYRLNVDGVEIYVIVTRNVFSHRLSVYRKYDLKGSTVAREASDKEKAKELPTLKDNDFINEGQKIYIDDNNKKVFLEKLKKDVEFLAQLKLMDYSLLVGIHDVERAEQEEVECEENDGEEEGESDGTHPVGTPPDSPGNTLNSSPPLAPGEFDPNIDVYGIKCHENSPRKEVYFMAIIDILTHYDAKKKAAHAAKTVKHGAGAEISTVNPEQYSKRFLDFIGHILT

[12] = biological target: GCN2 (Homo sapiens (Human), UniProt Q9P2K8); experiment: ActivX kinase probe assay (human PBMC); assay type: binding; conditions: GCN2, read-out: percent inhibition
GCN2, sequence (Q9P2K8 whole entry): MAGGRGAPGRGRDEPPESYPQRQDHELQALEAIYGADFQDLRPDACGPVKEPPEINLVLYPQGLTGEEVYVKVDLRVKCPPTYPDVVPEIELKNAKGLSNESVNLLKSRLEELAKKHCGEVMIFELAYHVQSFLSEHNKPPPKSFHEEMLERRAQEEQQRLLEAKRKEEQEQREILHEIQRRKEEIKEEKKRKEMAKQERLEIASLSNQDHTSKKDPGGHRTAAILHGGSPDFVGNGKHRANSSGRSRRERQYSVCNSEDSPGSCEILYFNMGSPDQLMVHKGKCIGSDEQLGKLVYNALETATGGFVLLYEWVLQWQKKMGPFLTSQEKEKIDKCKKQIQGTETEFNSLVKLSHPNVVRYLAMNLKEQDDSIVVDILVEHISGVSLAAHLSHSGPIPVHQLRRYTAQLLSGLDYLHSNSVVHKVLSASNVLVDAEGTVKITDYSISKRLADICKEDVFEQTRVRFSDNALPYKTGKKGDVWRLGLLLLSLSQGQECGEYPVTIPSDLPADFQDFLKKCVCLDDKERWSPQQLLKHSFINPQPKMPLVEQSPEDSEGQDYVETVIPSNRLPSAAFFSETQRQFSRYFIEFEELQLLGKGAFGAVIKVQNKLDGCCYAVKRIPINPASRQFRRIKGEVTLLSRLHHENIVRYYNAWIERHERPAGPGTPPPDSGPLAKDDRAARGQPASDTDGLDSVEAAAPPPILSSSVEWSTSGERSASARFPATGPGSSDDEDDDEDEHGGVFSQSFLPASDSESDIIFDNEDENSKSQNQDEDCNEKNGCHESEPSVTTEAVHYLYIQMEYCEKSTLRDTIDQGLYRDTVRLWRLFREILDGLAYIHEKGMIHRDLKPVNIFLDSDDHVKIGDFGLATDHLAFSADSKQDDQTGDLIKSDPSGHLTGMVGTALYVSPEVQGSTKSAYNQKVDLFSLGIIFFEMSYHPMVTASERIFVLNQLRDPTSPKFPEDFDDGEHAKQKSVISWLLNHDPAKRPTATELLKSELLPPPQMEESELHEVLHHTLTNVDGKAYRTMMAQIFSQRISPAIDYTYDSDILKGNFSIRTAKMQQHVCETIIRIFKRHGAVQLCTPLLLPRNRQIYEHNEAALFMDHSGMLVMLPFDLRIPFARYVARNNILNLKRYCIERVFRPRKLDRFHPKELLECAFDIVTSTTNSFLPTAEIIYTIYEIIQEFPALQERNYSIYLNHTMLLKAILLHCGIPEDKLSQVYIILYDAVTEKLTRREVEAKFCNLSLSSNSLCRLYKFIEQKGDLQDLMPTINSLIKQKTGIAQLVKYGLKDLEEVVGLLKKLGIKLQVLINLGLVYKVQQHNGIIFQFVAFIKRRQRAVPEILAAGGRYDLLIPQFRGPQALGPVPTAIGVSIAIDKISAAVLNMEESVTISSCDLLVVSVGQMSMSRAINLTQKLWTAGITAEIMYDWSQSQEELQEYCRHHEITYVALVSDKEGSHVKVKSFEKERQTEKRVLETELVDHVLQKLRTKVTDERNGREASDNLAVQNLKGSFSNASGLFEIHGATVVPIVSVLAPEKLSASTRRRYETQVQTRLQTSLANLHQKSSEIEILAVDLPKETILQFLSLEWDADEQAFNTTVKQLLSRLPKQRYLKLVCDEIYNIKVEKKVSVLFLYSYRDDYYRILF

[13] = biological target: CaMK2d (Homo sapiens (Human), UniProt Q13557); experiment: ActivX kinase probe assay (human PBMC); assay type: binding; conditions: CaMK2d, read-out: percent inhibition
[14] = biological target: CDC2 (Homo sapiens (Human), UniProt P06493); experiment: ActivX kinase probe assay (human PBMC); assay type: binding; conditions: CDC2, read-out: percent inhibition
[15] = biological target: MSK1 domain1 (Homo sapiens (Human), UniProt O75582); experiment: ActivX kinase probe assay (human PBMC); assay type: binding; conditions: MSK1 domain1, read-out: percent inhibition
[16] = biological target: ULK3 (Homo sapiens (Human), UniProt Q6PHR2); experiment: ActivX kinase probe assay (human PBMC); assay type: binding; conditions: ULK3, read-out: percent inhibition
[17] = biological target: CaMK2g (Homo sapiens (Human), UniProt Q13555); experiment: ActivX kinase probe assay (human PBMC); assay type: binding; conditions: CaMK2g, read-out: percent inhibition
CaMK2g, sequence (Q13555 whole entry): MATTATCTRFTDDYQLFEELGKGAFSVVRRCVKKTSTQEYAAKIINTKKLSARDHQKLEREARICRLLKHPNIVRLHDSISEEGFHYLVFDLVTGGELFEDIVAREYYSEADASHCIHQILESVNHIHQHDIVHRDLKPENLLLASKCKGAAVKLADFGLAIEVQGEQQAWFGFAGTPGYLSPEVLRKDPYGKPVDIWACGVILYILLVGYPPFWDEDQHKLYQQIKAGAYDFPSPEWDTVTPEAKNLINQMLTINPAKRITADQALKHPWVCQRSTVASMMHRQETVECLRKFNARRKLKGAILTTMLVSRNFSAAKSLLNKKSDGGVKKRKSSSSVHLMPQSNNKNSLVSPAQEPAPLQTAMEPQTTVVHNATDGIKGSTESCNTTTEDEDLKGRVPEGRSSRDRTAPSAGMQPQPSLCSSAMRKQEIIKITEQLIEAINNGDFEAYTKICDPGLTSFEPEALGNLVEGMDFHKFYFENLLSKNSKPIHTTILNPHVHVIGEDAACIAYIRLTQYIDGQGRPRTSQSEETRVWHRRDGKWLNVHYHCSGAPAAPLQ

[18] = biological target: SYK (Homo sapiens (Human), UniProt P43405); experiment: ActivX kinase probe assay (human PBMC); assay type: binding; conditions: SYK, read-out: percent inhibition
[19] = biological target: MAP3K3 (Homo sapiens (Human), UniProt Q99759); experiment: ActivX kinase probe assay (human PBMC); assay type: binding; conditions: MAP3K3, read-out: percent inhibition
[20] = tested on: ZC1/HGK, ZC2/TNIK, ZC3/MINK; experiment: ActivX kinase probe assay (human PBMC); assay type: binding
[21] = biological target: ZC2/TNIK (Homo sapiens (Human), UniProt Q9UKE5); experiment: ActivX kinase probe assay (human PBMC); assay type: binding; conditions: ZC2/TNIK, read-out: percent inhibition
[22] = biological target: RSK1 domain2 (Homo sapiens (Human), UniProt Q15418); experiment: ActivX kinase probe assay (human PBMC); assay type: binding; conditions: RSK1 domain2, read-out: percent inhibition
[23] = biological target: LRRK2 (Homo sapiens (Human), UniProt Q5S007); experiment: ActivX kinase probe assay (human PBMC); assay type: binding; conditions: read-out: percent inhibition
[24] = biological target: IRAK1 (Homo sapiens (Human), UniProt P51617); experiment: ActivX kinase probe assay (human PBMC); assay type: binding; conditions: read-out: percent inhibition
[25] = biological target: CDK2 (Homo sapiens (Human), UniProt P24941); experiment: ActivX kinase probe assay (human PBMC); assay type: binding; conditions: CDK2, read-out: percent inhibition
[26] = tested on: RSK1, RSK2, RSK3 domain1; experiment: ActivX kinase probe assay (human PBMC); assay type: binding
[27] = biological target: SMG1 (Homo sapiens (Human), UniProt Q96Q15); experiment: ActivX kinase probe assay (human PBMC); assay type: binding; conditions: SMG1, read-out: percent inhibition
[28] = biological target: DGKA (Homo sapiens (Human), UniProt P23743); experiment: ActivX kinase probe assay (human PBMC); assay type: binding; conditions: DGKA, read-out: percent inhibition
[29] = biological target: GST-tagged truncated LRRK2 (Homo sapiens (Human), UniProt Q5S007); experiment: LRRK2 Lantha Screen kinase assay; assay type: biochemical; conditions: geometric mean of 2-5 determinations unless otherwise indicated (a: >=6 determinations; b: single determination); read-out: LRRK2 WT IC50
[30] = biological target: KHS1 (Homo sapiens (Human), UniProt Q9Y4K4); experiment: ActivX kinase probe assay (human PBMC); assay type: binding; conditions: KHS1, read-out: percent inhibition
[31] = biological target: SGK3 (Homo sapiens (Human), UniProt Q96BR1); experiment: ActivX kinase probe assay (human PBMC); assay type: binding; conditions: SGK3, read-out: percent inhibition
SGK3, sequence (Q96BR1 whole entry): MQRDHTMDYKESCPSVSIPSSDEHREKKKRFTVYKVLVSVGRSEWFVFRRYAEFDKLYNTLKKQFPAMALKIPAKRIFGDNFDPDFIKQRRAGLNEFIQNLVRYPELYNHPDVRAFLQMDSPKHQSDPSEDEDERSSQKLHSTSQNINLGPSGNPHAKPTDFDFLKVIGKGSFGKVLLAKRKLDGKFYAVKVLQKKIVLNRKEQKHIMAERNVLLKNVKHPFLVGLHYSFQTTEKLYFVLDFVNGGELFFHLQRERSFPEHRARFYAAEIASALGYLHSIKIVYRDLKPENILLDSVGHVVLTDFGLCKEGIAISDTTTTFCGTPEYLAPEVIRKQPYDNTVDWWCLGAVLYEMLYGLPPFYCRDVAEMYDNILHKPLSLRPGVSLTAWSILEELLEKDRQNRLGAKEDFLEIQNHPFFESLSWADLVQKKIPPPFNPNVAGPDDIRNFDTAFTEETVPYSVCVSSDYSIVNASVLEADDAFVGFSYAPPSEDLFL

With `Cn1cc(-c2c[nH]c3ncnc(N4CCOCC4)c23)cn1` [Example 1, 5-(1-Methyl-1H-pyrazol-4-yl)-4-(morpholin-4-yl)-7H-pyrrolo[2,3-d]pyrimidine] the inhibition at 0.1 µM ([1]; 0.1 μM) was 15%, the inhibition at 1 µM ([1]; 1 μM) was 23.1% and the inhibition at 0.1 µM ([2]; 0.1 μM) was -18.6%. The inhibition at 1 µM ([2]; 1 μM) was -62.9%, the inhibition at 0.1 µM ([3]; 0.1 μM) was -6.8% and the inhibition at 1 µM ([3]; 1 μM) was 5.6%. The inhibition at 0.1 µM ([4]; 0.1 μM) was 9%, the inhibition at 1 µM ([4]; 1 μM) was -6.7% and the inhibition at 0.1 µM ([5]; 0.1 μM) was 15%. It also gave an inhibition at 1 µM ([5]; 1 μM) of 10.1%, an inhibition at 0.1 µM ([6]; 0.1 μM) of 22.8% and an inhibition at 1 µM ([6]; 1 μM) of 31.2%. The inhibition at 0.1 µM ([7]; 0.1 μM) was 4.3%, the inhibition at 1 µM ([7]; 1 μM) was -0.9% and the inhibition at 0.1 µM ([8]; 0.1 μM) was 2.7%. It also gave an inhibition at 1 µM ([8]; 1 μM) of 20.1%, a percent inhibition ([9]; 0.1 μM) of 1% and a percent inhibition ([9]; 1 μM) of −2.2%. It also gave an inhibition at 0.1 µM ([10]; 0.1 μM) of -3.4%, an inhibition at 1 µM ([10]; 1 μM) of -13.8% and an inhibition at 0.1 µM ([11]; 0.1 μM) of 12.1%. It also gave an inhibition at 1 µM ([11]; 1 μM) of 6.8%, an inhibition at 0.1 µM ([12]; 0.1 μM) of 0.1% and an inhibition at 1 µM ([12]; 1 μM) of -25.1%. The inhibition at 0.1 µM ([13]; 0.1 μM) was -45.3%, the inhibition at 1 µM ([13]; 1 μM) was -38.1% and the inhibition at 0.1 µM ([14]; 0.1 μM) was -4%. It also gave an inhibition at 1 µM ([14]; 1 μM) of 14.7%, an inhibition at 0.1 µM ([15]; 0.1 μM) of -7% and an inhibition at 1 µM ([15]; 1 μM) of -30.4%. The inhibition at 0.1 µM ([16]; 0.1 μM) was -1.9%, the inhibition at 1 µM ([16]; 1 μM) was 8% and the inhibition at 0.1 µM ([17]; 0.1 μM) was -16.9%. For the same compound, the inhibition at 1 µM ([17]; 1 μM) was -15.5%, the inhibition at 0.1 µM ([18]; 0.1 μM) was -8.9% and the inhibition at 1 µM ([18]; 1 μM) was -6.1%. It also gave an inhibition at 0.1 µM ([19]; 0.1 μM) of -9.2%, an inhibition at 1 µM ([19]; 1 μM) of 7.2% and a percent inhibition ([20]; 0.1 μM) of −18%. It also gave a percent inhibition ([20]; 1 μM) of 4.9%, an inhibition at 0.1 µM ([21]; 0.1 μM) of -10.6% and an inhibition at 1 µM ([21]; 1 μM) of 31.2%. It also gave an inhibition at 0.1 µM ([22]; 0.1 μM) of -12.7%, an inhibition at 1 µM ([22]; 1 μM) of 18.1% and an inhibition at 0.1 µM ([23]; 0.1 μM) of 69%. It also gave an inhibition at 1 µM ([23]; 1 μM) of 88.1%, an inhibition at 1 µM ([24]; IRAK1, 1 μM) of -9.1% and an inhibition at 0.1 µM [24] of -13.8%. The inhibition at 0.1 µM ([25]; 0.1 μM) was -12.1%, the inhibition at 1 µM ([25]; 1 μM) was 9.5% and the percent inhibition ([26]; 0.1 μM) was 3%. The percent inhibition ([26]; 1 μM) was 18.7%, the inhibition at 0.1 µM ([27]; 0.1 μM) was -1.3% and the inhibition at 1 µM ([27]; 1 μM) was -19.2%. It also gave an inhibition at 0.1 µM ([28]; 0.1 μM) of -21%, an inhibition at 1 µM ([28]; 1 μM) of -16.6% and an IC50 [29] of 13 nM. It also gave an inhibition at 0.1 µM ([30]; 0.1 μM) of 17.8%, an inhibition at 1 µM ([30]; 1 μM) of 24.6% and an inhibition at 0.1 µM ([31]; 0.1 μM) of 2.5%. The inhibition at 1 µM ([31]; 1 μM) was 9.9%.
